One data set relates to T-cells. To be noted: cited from earlier work.
The test system of the next data set is type 1 IFN expression. To be noted: cited from earlier work.
For a further data set, the target named is human STING (Homo sapiens, UniProt Q86WV6). To be noted: cited from earlier work.
Data set [1] deals with STING LBD fusion proteins (PH-S139, 2XFYVE-S139). As to the kind of experiment: mNG fluorescence and immunoblots of organelle-targeted STING LBD fusion proteins. The data set is classed as cell-based, human. Particulars: nigericin stimulation. From the text: Upper, concentrated STING is able to mediate TBK1 for trans-phosphorylation. Lower, diluted STING is unable to mediate TBK1's transphosphorylation.
For orientation: In western blotting, separated proteins are transferred to a membrane and probed.

The next data set deals with STING-HA. The data set can be described thus: STING-HA degradation in 293T stably expressing STING-HA, HA intracellular staining. It is filed as cell-based, human. To be noted: 293T STING-HA; cGAMP 6 hours; pre-treatment with U18666A; FIGS. 11G-11H. From the text:
FIGS. 11A-11H show interaction of ESCRT components with STING. FIGS. 11A-11D show immunofluorescence of CD63, HGS, and STING (FIG. 11A); p62, HGS, and STING (FIG. 11B); LC3B, HGS, and STING (FIG. 11C); p62, CD63, and STING (FIG. 11D) in 293T stably expressing STING-HA and non-stimulated, relative to FIGS. 4A-4D. […] Dashed box represents the cropped region enlarged in the right panel for the +cGAMP condition. Scale bar is 10 μm. One representative field of n≥3 independent fields in n=3 independent experiments. […] One representative experiment of n=3 independent experiments with n=2 technical replicates per experiment. […] Each dot represents an individual replicate **** p<0.0001.
Data was analyzed with FlowJo (BD).

For the next data set, the system named is STING. The data set can be described thus: Immunoblots of U937 and STING-HA 293T cells treated with VPS34-IN1 and cGAMP. To be noted: 1 μM VPS34-IN1. The data set is classed as cell-based, human. From the text:
(§1) FIGS. 22A-22F show endosome localization and J domain activity are essential for DNAJC13's function on STING.

For a further data set, the system named is DNAJC13. The data set can be described thus: Immunofluorescence of DNAJC13 in 293T cells. The data set is classed as cell-based, human. Particulars: 1 μm VPS34-IN1, FIG. 22B.
Description: as §1

Setting [2] is: sgCTRL cells, cGAMP stimulation, FIGS. 22D-22E.

Sequence of human STING (Q86WV6 whole entry H232R, the tested form may be a part): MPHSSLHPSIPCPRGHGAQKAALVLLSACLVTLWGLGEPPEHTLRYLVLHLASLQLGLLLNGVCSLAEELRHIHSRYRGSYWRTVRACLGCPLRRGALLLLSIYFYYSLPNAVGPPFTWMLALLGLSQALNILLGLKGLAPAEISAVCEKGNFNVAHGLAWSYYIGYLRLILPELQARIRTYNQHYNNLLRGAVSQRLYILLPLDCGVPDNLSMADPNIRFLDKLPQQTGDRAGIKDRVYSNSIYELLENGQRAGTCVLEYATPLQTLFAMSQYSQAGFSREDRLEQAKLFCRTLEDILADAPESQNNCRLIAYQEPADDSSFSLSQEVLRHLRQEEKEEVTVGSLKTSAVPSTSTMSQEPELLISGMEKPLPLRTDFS

With `Cc1ccc2c(=O)c3cccc(CC(=O)O)c3oc2c1C` [DMXAA, 6-dimethylxanthenone-4-acetic acid], in the data set on T-cells, the “apoptosis in T-cells” value was “elicits stress pathways that induce apoptosis in T-cells”. Moreover, in the data set on type 1 IFN expression, the “type 1 IFN expression” value is “induces type 1 IFN expression”. In addition, the “binding to human STING versus murine STING” value on human STING is on record as “substantially weaker binding to human STING in comparison to murine STING”.
Take `CO[C@@H]1C[C@@H](C[C@H]2CC[C@H](C)[C@H]([C@@H](C)C(=O)O)O2)O[C@]2(O[C@](C)([C@H]3CC[C@@](C)([C@@H]4O[C@@H]([C@H]5O[C@@](O)(CO)[C@H](C)C[C@@H]5C)C[C@@H]4C)O3)C[C@H]2C)[C@@H]1C` [Nigericin]: the PH-S139 localization entry in data set [1] (FIG. 17E) is listed as “PH-S139 localization change was observed to dispersed vesicles”. Besides, the “STING activation (phosphorylation) of fusion proteins” value in data set [1] (FIG. 17F) was “STING activation was observed in PH-S139 and 2XFYVE-S139 but not with mitochondria localized TomS33-S139 or WT STING”.
Turning to `CCN(CC)CCO[C@H]1CC[C@@]2(C)C(=CC[C@@H]3[C@@H]2CC[C@]2(C)C(=O)CC[C@@H]32)C1` [U18666A], in the data set with STING-HA, the “STING degradation (STING-HA MFI)” value is “marked reduction in STING degradation”.
Consider `CC(C)(O)CNc1ncc(-c2ccnc(Nc3ccnc(Cl)c3)n2)c(CC2CC2)n1` [VPS34-IN1], for which the STING induced autophagy entry in the data set with STING (STING-HA 293T, digitonin and cGAMP, FIG. 22E) is recorded as “greatly enhanced”. Besides, in the data set on STING (setting [2]), the STING degradation entry is given as “enhancement of STING degradation” and the STING phosphorylation result is “strong boost of STING phosphorylation”. Besides, the DNAJC13 endosomal localization entry with DNAJC13 is “clear diffusion of DNAJC13 from the endosome”.
For the compound cyclic GMP-AMP [cGAMP], the “T-cell proliferation and T-cell death” value with T-cells (exogenous cGAMP) is “impairs T-cell proliferation and can cause T-cell death”.

The values are drawn from patent publication US20240271138A1, “METHODS AND COMPOSITIONS FOR MODULATING STING SIGNALING AND INNATE IMMUNE RESPONSES” (The Broad Institute, Inc., priority 2021, published 2024).
